Assay results taken from ChEMBL document CHEMBL1145554, “First CoMFA characterization of vesamicol analogs as ligands for the vesicular acetylcholine transporter” (J Med Chem, 2008).

Experiment: Displacement of [3H]vesamicol from VAChT receptor in torpedo electrical organ synaptic vesicle

## O[C@@H]1C[C@H]2CCCC[C@@H]2C[C@H]1N1CCC(c2ccccc2)CC1
  Ki: 0.009 nM

## O=C(CN1C2CCC1CC(c1ccccc1)C2)c1ccc(F)cc1 (stereo not drawn)
  Ki: 3400 nM

## O[C@@H]1CCCC[C@H]1N1CCC(c2ccccc2)CC1 (relative stereo) [VESAMICOL]
  Ki: 7.6 nM
